According to ChEMBL document CHEMBL3885861, “Open TG-GATES”:

Species: Rattus norvegicus
Experiment: Open TG-GATES - Regimen: Single
Format: toxicity, organism-based, Sprague-Dawley
Parameters: regimen Single, gender Male, age 6 weeks
Conditions: in vivo, po, 20 mg/kg, route gavage, dose level Middle; for Eos / Fbg / Hb / Ht / Lym / MCH / MCHC / MCV / Mono / Neu / PT / Plat / RBC / WBC / APTT / Bas: tissue Blood; for KIDNEY_L / KIDNEY_R / KIDNEY_TOTAL: tissue Kidney; for LIVER: tissue Liver; for ALT / AST / BUN / CRE / Cl / DBIL / GLC / IP / LDH / Na / RALB / TBIL / TC / TG / TP / gamma-GTP: tissue Plasma

CC/C(=C(\c1ccccc1)c1ccc(OCCN(C)C)cc1)c1ccccc1 [TAMOXIFEN]
Eos (3 h): 1% | Fbg (3 h): 267 mg/dL | Hb (3 h): 13 g/dL | Ht (3 h): 39.3% | Lym (3 h): 78% | MCH (3 h): 21 pg | MCHC (3 h): 33% | MCV (3 h): 63.8 fL | Mono (3 h): 4.2% | Neu (3 h): 16.6% | PT (3 h): 12.1 s | Plat (3 h): 116.7 x10_4/uL | RBC (3 h): 616 x10_4/ul | WBC (3 h): 103.9 x10_2/uL | KIDNEY_L (3 h): 0.8 g | KIDNEY_R (3 h): 0.8 g | KIDNEY_TOTAL (3 h): 1.6 g | LIVER (3 h): 8.4 g | ALT (3 h): 51 IU/L | AST (3 h): 81.2 IU/L | BUN (3 h): 10.4 mg/dL | CRE (3 h): 0.2 mg/dL | Cl (3 h): 106.6 meq/L | DBIL (3 h): 0.016 mg/dL | GLC (3 h): 178.8 mg/dL | IP (3 h): 9.8 mg/dL | LDH (3 h): 56 IU/L | Na (3 h): 140 meq/L | RALB (3 h): 2.6 g/dL | TBIL (3 h): 0.052 mg/dL | TC (3 h): 91.8 mg/dL | TG (3 h): 86 mg/dL | TP (3 h): 5.5 g/dL | gamma-GTP (3 h): 1.2 IU/L | TERMINAL_BW (6 h): 192.3 g | APTT (6 h): 18.2 s | Bas (6 h): 0% | Eos (6 h): 1.2% | Fbg (6 h): 269.4 mg/dL | Hb (6 h): 13.2 g/dL | Ht (6 h): 39.4% | Lym (6 h): 73.8% | MCH (6 h): 21.3 pg | MCHC (6 h): 33.5% | MCV (6 h): 63.7 fL | Mono (6 h): 4.2% | Neu (6 h): 20.4% | PT (6 h): 12.1 s | Plat (6 h): 107 x10_4/uL | RBC (6 h): 618.2 x10_4/ul | WBC (6 h): 64.9 x10_2/uL | KIDNEY_L (6 h): 0.8 g | KIDNEY_R (6 h): 0.8 g | KIDNEY_TOTAL (6 h): 1.6 g | LIVER (6 h): 7.7 g | ALT (6 h): 43.4 IU/L | AST (6 h): 82.8 IU/L | BUN (6 h): 8 mg/dL | CRE (6 h): 0.2 mg/dL | Cl (6 h): 109 meq/L | DBIL (6 h): 0.008 mg/dL | GLC (6 h): 175.8 mg/dL | IP (6 h): 10.7 mg/dL | LDH (6 h): 92.4 IU/L | Na (6 h): 141.8 meq/L | RALB (6 h): 2.6 g/dL | TBIL (6 h): 0.048 mg/dL | TC (6 h): 82.2 mg/dL | TG (6 h): 45.4 mg/dL | TP (6 h): 5.4 g/dL | gamma-GTP (6 h): 1.4 IU/L | TERMINAL_BW (9 h): 194.8 g | APTT (9 h): 16.1 s | Bas (9 h): 0% | Eos (9 h): 1% | Fbg (9 h): 252.6 mg/dL | Hb (9 h): 12.7 g/dL | Ht (9 h): 38% | Lym (9 h): 74.4% | MCH (9 h): 21.6 pg | MCHC (9 h): 33.3% | MCV (9 h): 64.9 fL | Mono (9 h): 2.8% | Neu (9 h): 21.6% | PT (9 h): 12.4 s | Plat (9 h): 114.1 x10_4/uL | RBC (9 h): 585.4 x10_4/ul | WBC (9 h): 73.4 x10_2/uL | KIDNEY_L (9 h): 0.8 g | KIDNEY_R (9 h): 0.8 g | KIDNEY_TOTAL (9 h): 1.7 g | LIVER (9 h): 7.1 g | ALT (9 h): 40 IU/L | AST (9 h): 75.8 IU/L | BUN (9 h): 8.6 mg/dL | CRE (9 h): 0.2 mg/dL | Cl (9 h): 107.6 meq/L | DBIL (9 h): 0.008 mg/dL | GLC (9 h): 178.8 mg/dL | IP (9 h): 11 mg/dL | LDH (9 h): 46 IU/L | Na (9 h): 141.4 meq/L | RALB (9 h): 2.4 g/dL | TBIL (9 h): 0.042 mg/dL | TC (9 h): 61.8 mg/dL | TG (9 h): 35.4 mg/dL | TP (9 h): 5.1 g/dL | gamma-GTP (9 h): 1 IU/L | TERMINAL_BW (24 h): 194.8 g | APTT (24 h): 16.8 s | Bas (24 h): 0% | Eos (24 h): 1.2% | Fbg (24 h): 232.8 mg/dL | Hb (24 h): 12.7 g/dL | Ht (24 h): 38.5% | Lym (24 h): 79% | MCH (24 h): 21.3 pg | MCHC (24 h): 33% | MCV (24 h): 64.5 fL | Mono (24 h): 2.4% | Neu (24 h): 17.2% | PT (24 h): 12.8 s | Plat (24 h): 117 x10_4/uL | RBC (24 h): 597.6 x10_4/ul | WBC (24 h): 83.2 x10_2/uL | KIDNEY_L (24 h): 0.9 g | KIDNEY_R (24 h): 0.9 g | KIDNEY_TOTAL (24 h): 1.8 g | LIVER (24 h): 8.7 g | ALT (24 h): 52.2 IU/L | AST (24 h): 79.2 IU/L | BUN (24 h): 13 mg/dL | CRE (24 h): 0.2 mg/dL | Cl (24 h): 109.6 meq/L | DBIL (24 h): 0.016 mg/dL | GLC (24 h): 186 mg/dL | IP (24 h): 8.3 mg/dL | LDH (24 h): 64 IU/L | Na (24 h): 143.2 meq/L | RALB (24 h): 2.6 g/dL | TBIL (24 h): 0.038 mg/dL | TC (24 h): 60.2 mg/dL | TG (24 h): 84.6 mg/dL | TP (24 h): 5.4 g/dL | gamma-GTP (24 h): 1.4 IU/L
